According to US12161869B2, “Treatment of disorders associated with inflammation” (Galvani Bioelectronics Limited, priority 2017, dated 2024):
Structures can show the parent of a compound that is named as a salt.

System: SpA BF changes during SpN stimulation
Assay: Local lidocaine block of SpN stimulation-induced changes in splenic artery blood flow
Type: in vivo, pig
Settings: 2% lidocaine hydrochloride solution applied locally around the implanted SpN cuff
Procedure: On the experimental day, the animal was sedated with ketamine (1.5 mg/kg) and midazolam (0.5 mg/kg) administered by intramuscular injection. An intravenous catheter was placed in one auricular vein, and anesthesia was induced by propofol (2 mg/Kg) administered intravenously. An endotracheal tube was placed, and anesthesia was maintained with sevoflurane inhalant combined with continuous rate infusion (CRI) of fentanyl (0.2 μg/Kg/min).
The surgical approach to SpN cuff implantation was as follows. The thoracolumbar junction was supported and slightly elevated using a sand bag. After appropriate surgical preparation (clipping and aseptic scrub with chlorhexidine gluconate and alcohol), the left flank was aseptically draped exposing a 20×25 cm area centered on the second to last rib. A 15 cm skin incision was made in the second to last intercostal space using monopolar electrocautery. The incision was continued through the subcutaneous tissues and intercostal musculature until the peritoneum was exposed. […]
By slight rotation of the splenic visceral base towards the operator, and placing gentle ventral traction on the spleen, the gastrosplenic ligament at the splenic hilum was incised using Metzembaum scissors, exposing the SpA. […] SpA blood flow readings were tested and finally the rib retractors were partially closed and the exposed incision covered with saline-soaked gauze sponges. […]

CCN(CC)CC(=O)Nc1c(C)cccc1C [Lidocaine, lidocaine hydrochloride]
effect on changes in SpA BF caused by SpN stimulation: able to block the changes in SpA BF
